Laboratory results published in US6251894A, “1-(1,2-disubstituted piperidinyl)-4 (fused imidazole)-piperidine derivatives” (Janssen Pharmaceuticals N.V., priority 1995, dated 2001).
Read-outs that look alike come from different tables or passages of the source.

What was measured:
[1] = system: Substance P Induced Relaxation of the Pig Coronary Arteries; assay: Antagonism of substance P induced relaxation of the pig coronary arteries; settings: 30 min incubation
Experimental: Antagonism of Substance P Induced Relaxation of the Pig Coronary Arteries
Segments of coronary arteries taken from pigs (killed by injection of an overdose of sodium pentobarbital) were inverted and mounted for recording of isometric tension in organ baths (volume 20 ml) with the endothelium at the outside. The preparations were bathed in Krebs-Henseleit solution. The solution was kept at 37° C. and gassed with a mixture of O2 /CO2 (95/5). After stabilisation of the preparations, prostaglandin F2α (10^-5 M) was administered to induce a contraction. This was repeated until contractile responses became stable. Then prostaglandin F2α was again administered and substance P (3×10^-10 M and 10^-9 M cumulatively) was added. Substance P induced endothelium dependent relaxations. After washing away the agonists, a known concentration of a compound of formula (I) was added. After an incubation period of 30 minutes, prostaglandin F2α (10^-5 M) and the same concentrations of substance P as described above were again administered in the presence of the compound to be tested.

[2] = system: Substance P Induced Plasma Extravasation; assay: Antagonism of substance P induced plasma extravasation in guinea-pigs; format: in vivo, guinea-pig; settings: Cavia porcellus, sc, s.c., 1 hour prior to substance P
Experimental: Antagonism of Substance P Induced Plasma Extravasation in Guinea-pigs
Plasma travasation was induced by injection of substance P (2 mg/kg) in the femoral artery of female guinea-pigs. Evans Blue dye (30 mg/kg) was injected simultaneously. The test compound or solvent was administered subcutaneous (s.c.) or orally (p.o.) 1 hour prior to substance P injection. 10 minutes after challenge, the animals were checked for blue colouring (a direct measure for plasma extravasation) of the nose, the forepaws, and the conjunctiva. 30 minutes after challenge, the animals were sacrificed by CO2 gas inhalation and checked for blue colouring of the trachea and the urinary bladder. […]

[3] = test compound concentration 3 × 10^-9 (unit not given)
[4] = 10 min, conjunctiva, read-out: lowest active dose (LAD), conjunctiva
[5] = 10 min, forepaws, read-out: lowest active dose (LAD), forepaws
[6] = 10 min, nose, read-out: lowest active dose (LAD), nose
[7] = 0.5 h, trachea, read-out: lowest active dose (LAD), trachea
[8] = 0.5 h, urinary bladder, read-out: lowest active dose (LAD), urinary bladder

Compound: O=C(c1cccc(C(F)(F)F)c1)N1CCC(N2CCC(C3c4ccccc4Cn4c3nc3ccccc34)CC2)CC1Cc1ccccc1 (centres unmarked) [Compound 74]
- % inhibition of the response to 10^-9 M substance P [1, 3]: 8.6%

Compound: O=C(c1cc(C(F)(F)F)cc(C(F)(F)F)c1)N1CC[C@@H](N2CCC3(CC2)c2ccccc2CCn2ccnc23)C[C@@H]1Cc1ccccc1 (relative stereo) [Compound 118]
- minimal effective dose [2, 4]: 10 mg/kg
- minimal effective dose [2, 5]: 10 mg/kg
- minimal effective dose [2, 6]: 10 mg/kg
- minimal effective dose [2, 7]: 10 mg/kg
- minimal effective dose [2, 8]: 10 mg/kg

Compound: O=C(c1cc(Cl)cc(Cl)c1)N1CC[C@H](N2CCC(=C3c4ccccc4CCn4ccnc43)CC2)C[C@H]1Cc1ccccc1 (relative stereo) [Compound 48]
- % inhibition of the response to 10^-9 M substance P [1, 3]: 59.7%

Compound: Cc1cc(C)cc(C(=O)N2CCC(N3CCC(C4c5ccccc5CCn5c4nc4ccccc45)CC3)CC2Cc2ccccc2)c1 (centres unmarked) [Compound 65]
- % inhibition of the response to 10^-9 M substance P [1, 3]: 27.3%

Compound: Cc1cc(C)cc(C(=O)N2CCC(N3CCC(=C4c5ccn(C)c5CCn5cc(C)nc54)CC3)CC2Cc2ccccc2)c1 (centres unmarked) [Compound 30]
- % inhibition of the response to 10^-9 M substance P [1, 3]: 15.3%

Compound: O=C(c1ccc2ccccc2c1)N1CCC(N2CCC(C3c4ccccc4Cn4c3nc3ccccc34)CC2)CC1Cc1ccccc1 (centres unmarked) [Compound 92]
- % inhibition of the response to 10^-9 M substance P [1, 3]: 6.7%

Compound: Cc1cc(C)cc(C(=O)N2CC[C@@H](N3CCC(C4c5ccccc5Cn5ccnc54)CC3)C[C@@H]2Cc2ccccc2)c1 (some centres unmarked) [Compound 109]
- % inhibition of the response to 10^-9 M substance P [1, 3]: 13.5%

Compound: O=C(c1cc(C(F)(F)F)cc(C(F)(F)F)c1)N1CC[C@H](N2CCC(=C3c4ccccc4CCn4c(Cl)cnc43)CC2)C[C@H]1Cc1ccccc1 (relative stereo) [Compound 58]
- % inhibition of the response to 10^-9 M substance P [1, 3]: 91.5%

Compound: Cc1cc(C)cc(C(=O)N2CC[C@H](N3CCC(=C4c5ccsc5CCn5ccnc54)CC3)C[C@@H]2Cc2ccccc2)c1 (relative stereo) [Compound 38]
- % inhibition of the response to 10^-9 M substance P [1, 3]: 27.1%

Compound: Cc1cc(C)cc(C(=O)N2CCC(N3CCC(=C4c5ccccc5CCn5c(C)cnc54)CC3)CC2Cc2ccccc2)c1 (centres unmarked) [Compound 28]
- % inhibition of the response to 10^-9 M substance P [1, 3]: 37.4%

Compound: O=C(c1cc2ccccc2s1)N1CCC(N2CCC(C3c4ccccc4Cn4c3nc3ccccc34)CC2)CC1Cc1ccccc1 (centres unmarked) [Compound 94]
- % inhibition of the response to 10^-9 M substance P [1, 3]: 8.2%

Compound: O=C(c1ccc(Cl)c(Cl)c1)N1CC[C@@H](N2CCC(C3c4ccccc4Cn4c3nc3ccccc34)CC2)C[C@@H]1Cc1ccccc1 (some centres unmarked) [Compound 103]
- % inhibition of the response to 10^-9 M substance P [1, 3]: 8.3%

Compound: Cc1cc(C)cc(C(=O)N2CC[C@H](N3CCC(=C4c5ccccc5CCn5c4nc(CO)c5CO)CC3)C[C@@H]2Cc2ccccc2)c1 (relative stereo) [Compound 61]
- % inhibition of the response to 10^-9 M substance P [1, 3]: 7.5%

Compound: Cc1cc(C)cc(C(=O)N2CCC(N3CCC(=C4c5cccc(C)c5CCn5ccnc54)CC3)CC2Cc2ccccc2)c1 (centres unmarked) [Compound 29]
- % inhibition of the response to 10^-9 M substance P [1, 3]: 8.1%

Compound: O=C(c1cc(C(F)(F)F)cc(C(F)(F)F)c1)N1CC[C@H](N2CCC(C3c4ccccc4CCn4c3nc3ccccc34)CC2)C[C@H]1Cc1ccccc1 (some centres unmarked) [Compound 13]
- % inhibition of the response to 10^-9 M substance P [1, 3]: 74.2%

Compound: O=C(c1ccc2ncsc2c1)N1CCC(N2CCC(C3c4ccccc4Cn4c3nc3ccccc34)CC2)CC1Cc1ccccc1 (centres unmarked) [Compound 96]
- % inhibition of the response to 10^-9 M substance P [1, 3]: 17.3%

Compound: Cc1cc(C)cc(C(=O)N2CC[C@H](N3CCC(C4c5ccccc5CCn5c4nc4ccccc45)CC3)C[C@H]2Cc2ccccc2)c1 (some centres unmarked) [Compound 66]
- % inhibition of the response to 10^-9 M substance P [1, 3]: 56.6%

Compound: O=C(c1ccc2ncsc2c1)N1CC[C@@H](N2CCC(C3c4ccccc4Cn4c3nc3ccccc34)CC2)C[C@@H]1Cc1ccccc1 (some centres unmarked) [Compound 102]
- % inhibition of the response to 10^-9 M substance P [1, 3]: 17%

Compound: O=C(c1cc(C(F)(F)F)cc(C(F)(F)F)c1)N1CCC(N2CCC(C3c4ccccc4CCn4c3nc3ccccc34)CC2)CC1Cc1ccc(F)c(F)c1 (centres unmarked) [Compound 67]
- % inhibition of the response to 10^-9 M substance P [1, 3]: 64.4%

Compound: Cc1ccc2c(c1)CCn1ccnc1C2=C1CCN([C@H]2CCN(C(=O)c3cc(C(F)(F)F)cc(C(F)(F)F)c3)[C@@H](Cc3ccccc3)C2)CC1 (relative stereo) [Compound 50]
- % inhibition of the response to 10^-9 M substance P [1, 3]: 25%

Compound: Cc1cc(C)cc(C(=O)N2CC[C@H](N3CCC(=C4c5ccc(C)cc5CCn5ccnc54)CC3)C[C@H]2Cc2ccccc2)c1 (relative stereo) [Compound 57]
- % inhibition of the response to 10^-9 M substance P [1, 3]: 66.7%

Compound: O=C(c1ccc2ccccc2c1)N1CC[C@@H](N2CCC(C3c4ccccc4Cn4c3nc3ccccc34)CC2)C[C@@H]1Cc1ccccc1 (some centres unmarked) [Compound 98]
- % inhibition of the response to 10^-9 M substance P [1, 3]: 23.2%

Compound: O=C(c1cc(C(F)(F)F)cc(C(F)(F)F)c1)N1CC[C@H](N2CCC(=C3c4ccccc4CCn4c(Cl)cnc43)CC2)C[C@@H]1Cc1ccccc1 (relative stereo) [Compound 62]
- % inhibition of the response to 10^-9 M substance P [1, 3]: 49.0%

Compound: Cc1cc(C(=O)N2CC[C@@H](N3CCC(C4c5ccccc5Cn5c4nc4ccccc45)CC3)C[C@@H]2Cc2ccccc2)no1 (some centres unmarked) [Compound 97]
- % inhibition of the response to 10^-9 M substance P [1, 3]: 5.8%

Compound: Cc1cc(C)cc(C(=O)N2CC[C@H](N3CCC(=C4c5ccc(C)cc5CCn5ccnc54)CC3)C[C@@H]2Cc2ccccc2)c1 (relative stereo) [Compound 56]
- % inhibition of the response to 10^-9 M substance P [1, 3]: 9.5%

Compound: Cc1cc(C)cc(C(=O)N2CCC(N3CCC(C4c5ccccc5Cn5c4nc4ccccc45)CC3)CC2Cc2ccccc2)c1 (centres unmarked) [Compound 69]
- % inhibition of the response to 10^-9 M substance P [1, 3]: 8%

Compound: Cc1cc(C)cc(C(=O)N2CC[C@@H](N3CCC(=C4c5ccccc5CCn5c(C=O)cnc54)CC3)C[C@H]2Cc2ccccc2)c1 (relative stereo) [Compound 24]
- % inhibition of the response to 10^-9 M substance P [1, 3]: 38.3%

Compound: O=C(c1cc(C(F)(F)F)cc(C(F)(F)F)c1)N1CC[C@@H](N2CCC(=C3c4ccccc4CCn4ccnc43)CC2)C[C@H]1Cc1ccccc1 (relative stereo) [Compound 23]
- % inhibition of the response to 10^-9 M substance P [1, 3]: 13.4%

Compound: O=C(c1cc(C(F)(F)F)cc(C(F)(F)F)c1)N1CC[C@@H](N2CCC(=C3c4sccc4CCn4ccnc43)CC2)C[C@H]1Cc1ccccc1 (relative stereo) [Compound 6]
- % inhibition of the response to 10^-9 M substance P ([1]; test compound concentration 3 × 10^-8 (unit not given)): 93.9%

Compound: Cc1ccc2c(c1)CCn1ccnc1C2=C1CCN([C@H]2CCN(C(=O)c3cc(C(F)(F)F)cc(C(F)(F)F)c3)[C@H](Cc3ccccc3)C2)CC1 (relative stereo) [Compound 51]
- % inhibition of the response to 10^-9 M substance P [1, 3]: 86.3%

Compound: O=C(c1cc(C(F)(F)F)cc(C(F)(F)F)c1)N1CCC(N2CCC(C3c4ccccc4CCn4c3nc3ccccc34)CC2)CC1Cc1ccc(Cl)c(Cl)c1 (centres unmarked) [Compound 64]
- % inhibition of the response to 10^-9 M substance P [1, 3]: 26.4%

Compound: O=C(Nc1cc(C(F)(F)F)cc(C(F)(F)F)c1)N1CC[C@@H](N2CCC(=C3c4ccccc4CCn4ccnc43)CC2)C[C@@H]1Cc1ccccc1 (relative stereo) [Compound 80]
- % inhibition of the response to 10^-9 M substance P [1, 3]: 10.9%

Compound: Cc1cc(C)cc(C(=O)N2CC[C@H](N3CCC(C4c5ccccc5Cn5c4nc4ccccc45)CC3)C[C@H]2Cc2ccccc2)c1 (some centres unmarked) [Compound 70]
- % inhibition of the response to 10^-9 M substance P [1, 3]: 31.2%

Compound: O=C(c1ccccc1)N1CC[C@@H](N2CCC(C3c4ccccc4Cn4c3nc3ccccc34)CC2)C[C@@H]1Cc1ccccc1 (some centres unmarked) [Compound 75]
- % inhibition of the response to 10^-9 M substance P [1, 3]: 13.7%

Compound: O=C(c1cc(C(F)(F)F)cc(C(F)(F)F)c1)N1CC[C@H](N2CCC(C3c4ccccc4CCn4c3nc3ccccc34)CC2)C[C@H]1Cc1ccc(F)c(F)c1 (some centres unmarked) [Compound 68]
- % inhibition of the response to 10^-9 M substance P [1, 3]: 93.1%

Compound: O=C(c1cc(C(F)(F)F)cc(C(F)(F)F)c1)N1CC[C@@H](N2CCC(C3c4ccccc4CCn4c3nc3ccccc34)CC2)C[C@@H]1Cc1ccc(Cl)c(Cl)c1 (mixture of isomers) [Compound 63, (±)-trans-1-[3,5-bis(trifluoromethyl)benzoyl]-2-[(3,4-dichlorophenyl)methyl]-4-[4-(11,12-dihydro-6H-benzimidazo[2,1-b][3]benzazepin-6-yl)-1-piperidinyl]piperidine]
- % inhibition of the response to 10^-9 M substance P [1, 3]: 61.4%

Compound: O=C(c1ccc2[nH]ccc2c1)N1CC[C@@H](N2CCC(=C3c4ccccc4CCn4ccnc43)CC2)C[C@@H]1Cc1ccccc1 (relative stereo) [Compound 81]
- % inhibition of the response to 10^-9 M substance P [1, 3]: 2.2%

Compound: O=C(c1cccs1)N1CCC(N2CCC(C3c4ccccc4Cn4c3nc3ccccc34)CC2)CC1Cc1ccccc1 (centres unmarked) [Compound 91]
- % inhibition of the response to 10^-9 M substance P [1, 3]: 9.2%

Compound: O=C(c1cc(C(F)(F)F)cc(C(F)(F)F)c1)N1CC[C@H](N2CCC3(CC2)c2ccccc2CCn2ccnc23)C[C@@H]1Cc1ccccc1 (relative stereo) [Compound 117]
- minimal effective dose [2, 4]: 2.5 mg/kg
- minimal effective dose [2, 5]: 2.5 mg/kg
- minimal effective dose [2, 6]: 2.5 mg/kg
- minimal effective dose [2, 7]: 40 mg/kg
- minimal effective dose [2, 8]: 10 mg/kg
